In the supplement of paper PMC10307832:

Compound: CO[C@@H]1[C@H](N(C)C(=O)c2ccccc2)C[C@H]2O[C@]1(C)n1c3ccccc3c3c4c(c5c6ccccc6n2c5c31)C(=O)NC4 [Midostaurin] + O=C(c1cc(Cc2n[nH]c(=O)c3ccccc23)ccc1F)N1CCN(C(=O)C2CC2)CC1 [Olaparib] (partner 8 µM)
Experiment: relative viability (nuclei count vs DMSO), 5 days (fraction); higher = more cells survive
Conditions: first compound 0.01 µM
In short: (§1)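 Lung cancer cell lines in 1536-well plates were dosed by pin tool the day after seeding, either with one drug alone or with a fixed anchor-drug dose plus five library-drug doses (not always all listed) in √10 steps. After 5 days, cells were fixed and their nuclei stained in one step (final 0.05% Triton X-100, 1% formaldehyde, 1 ug/ml Hoechst), then counted on 4× images. Relative viability is the nuclei count in treated wells divided by that in vehicle wells. Values are medians of duplicate plates.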

Cell Line | relative viability
NCI-H1437 | 0.618
NCI-H1755 | 0.864
NCI-H2023 | 0.494
HCC-15 | 0.747
NCI-H1793 | 0.923
PC-14 | 0.328
EKVX | 0.836
LC-2-ad | 0.738
NCI-H1944 | 0.388
NCI-H1975 | 0.733
RERF-LC-KJ | 0.819
NCI-H358 | 0.511
NCI-H650 | 0.36
PC-3 [JPC-3] | 1.08

Same assay, conditions: first compound 0.03162 µM

Cell Line | relative viability
NCI-H1437 | 0.665
NCI-H1755 | 0.884
NCI-H2023 | 0.505
HCC-15 | 0.734
NCI-H1793 | 0.804
PC-14 | 0.281
EKVX | 0.847
LC-2-ad | 0.688
NCI-H1944 | 0.433
NCI-H1975 | 0.677
RERF-LC-KJ | 0.839
NCI-H358 | 0.48
NCI-H650 | 0.406
PC-3 [JPC-3] | 0.946

Same assay, conditions: first compound 0.1 µM

Cell Line | relative viability
NCI-H1437 | 0.629
NCI-H1755 | 0.783
NCI-H2023 | 0.396
HCC-15 | 0.678
NCI-H1793 | 0.644
PC-14 | 0.206
EKVX | 0.738
LC-2-ad | 0.673
NCI-H1944 | 0.402
NCI-H1975 | 0.701
RERF-LC-KJ | 0.814
NCI-H358 | 0.531
NCI-H650 | 0.412
PC-3 [JPC-3] | 1.05

Same assay, conditions: first compound 0.3162 µM

Cell Line | relative viability
NCI-H1437 | 0.516
NCI-H1755 | 0.779
NCI-H2023 | 0.246
HCC-15 | 0.641
NCI-H1793 | 0.431
PC-14 | 0.199
EKVX | 0.775
LC-2-ad | 0.691
NCI-H1944 | 0.429
NCI-H1975 | 0.466
RERF-LC-KJ | 0.716
NCI-H358 | 0.575
NCI-H650 | 0.313
PC-3 [JPC-3] | 1.07

Compound: COc1cc(-c2nn([C@H]3CC[C@H](N4CCN(C(C)=O)CC4)CC3)c3ncnc(N)c23)ccc1NC(=O)c1cc2ccccc2n1C + CS(=O)(=O)N1CCN(Cc2cc3nc(-c4cccc5[nH]ncc45)nc(N4CCOCC4)c3s2)CC1 [Pictilisib] (partner 1 µM)
Experiment: as above
Conditions: first compound 0.0128 µM
In short: as §1

Cell Line | relative viability
NCI-H1437 | 0.413
NCI-H1755 | 0.509
NCI-H2023 | 0.277
HCC-15 | 0.854
NCI-H1793 | 0.424
PC-14 | 0.744
EKVX | 0.458
LC-2-ad | 0.606
NCI-H1944 | 0.362
NCI-H1975 | 0.322
RERF-LC-KJ | 0.572
NCI-H358 | 0.395
NCI-H650 | 0.944
PC-3 [JPC-3] | 0.65

Same assay, conditions: first compound 0.04048 µM

Cell Line | relative viability
NCI-H1437 | 0.514
NCI-H1755 | 0.169
NCI-H2023 | 0.188
HCC-15 | 0.369
NCI-H1793 | 0.288
PC-14 | 0.792
EKVX | 0.475
LC-2-ad | 0.009
NCI-H1944 | 0.301
NCI-H1975 | 0.31
RERF-LC-KJ | 0.557
NCI-H358 | 0.331
NCI-H650 | 0.96
PC-3 [JPC-3] | 0.791

Same assay, conditions: first compound 0.128 µM

Cell Line | relative viability
NCI-H1437 | 0.406
NCI-H1755 | 0.402
NCI-H2023 | 0.212
HCC-15 | 0.657
NCI-H1793 | 0.285
PC-14 | 0.664
EKVX | 0.401
LC-2-ad | 0.455
NCI-H1944 | 0.327
NCI-H1975 | 0.234
RERF-LC-KJ | 1.11
NCI-H358 | 0.277
NCI-H650 | 0.944
PC-3 [JPC-3] | 0.721

Same assay, conditions: first compound 1.28 µM

Cell Line | relative viability
NCI-H1437 | 0.314
NCI-H1755 | 0.299
NCI-H2023 | 0.22
HCC-15 | 0.647
NCI-H1793 | 0.311
PC-14 | 0.625
EKVX | 0.245
LC-2-ad | 0.311
NCI-H1944 | 0.285
NCI-H1975 | 0.149
RERF-LC-KJ | 0.538
NCI-H358 | 0.249
NCI-H650 | 0.866
PC-3 [JPC-3] | 0.764

Compound: COc1cc(-c2nn([C@H]3CC[C@H](N4CCN(C(C)=O)CC4)CC3)c3ncnc(N)c23)ccc1NC(=O)c1cc2ccccc2n1C + COc1cc2c(Oc3ccc(NC(=O)C4(C(=O)Nc5ccc(F)cc5)CC4)cc3F)ccnc2cc1OCCCN1CCOCC1 [Foretinib] (partner 0.25 µM)
Experiment: as above
Conditions: first compound 0.0128 µM
In short: as §1

Cell Line | relative viability
NCI-H1437 | 1.34
NCI-H1755 | 1.02
NCI-H2023 | 0.802
HCC-15 | 1.13
NCI-H1793 | 0.669
PC-14 | 0.956
EKVX | 0.881
LC-2-ad | 0.932
NCI-H1944 | 0.87
NCI-H1975 | 0.887
RERF-LC-KJ | 0.867
NCI-H358 | 0.766
NCI-H650 | 1.02
PC-3 [JPC-3] | 1.07

Same assay, conditions: first compound 0.04048 µM

Cell Line | relative viability
NCI-H1437 | 1.31
NCI-H1755 | 0.87
NCI-H2023 | 0.804
HCC-15 | 1.09
NCI-H1793 | 0.809
PC-14 | 1.06
EKVX | 0.755
LC-2-ad | 0.976
NCI-H1944 | 0.786
NCI-H1975 | 0.912
RERF-LC-KJ | 0.957
NCI-H358 | 0.626
NCI-H650 | 1.24
PC-3 [JPC-3] | 1.14

Same assay, conditions: first compound 0.128 µM

Cell Line | relative viability
NCI-H1437 | 1.29
NCI-H1755 | 0.833
NCI-H2023 | 0.717
HCC-15 | 0.94
NCI-H1793 | 0.648
PC-14 | 0.885
EKVX | 0.744
LC-2-ad | 0.886
NCI-H1944 | 0.832
NCI-H1975 | 0.918
RERF-LC-KJ | 0.838
NCI-H358 | 0.685
NCI-H650 | 1.07
PC-3 [JPC-3] | 1

Same assay, conditions: first compound 1.28 µM

Cell Line | relative viability
NCI-H1437 | 1.29
NCI-H1755 | 0.885
NCI-H2023 | 0.535
HCC-15 | 0.877
NCI-H1793 | 0.406
PC-14 | 0.979
EKVX | 0.575
LC-2-ad | 0.662
NCI-H1944 | 0.61
NCI-H1975 | 0.481
RERF-LC-KJ | 0.864
NCI-H358 | 0.279
NCI-H650 | 1.02
PC-3 [JPC-3] | 1.06

Compound: COc1cc(-c2nn([C@H]3CC[C@H](N4CCN(C(C)=O)CC4)CC3)c3ncnc(N)c23)ccc1NC(=O)c1cc2ccccc2n1C + Nc1nc2[nH]cc(CCc3ccc(C(=O)N[C@@H](CCC(=O)O)C(=O)O)cc3)c2c(=O)[nH]1 [Pemetrexed] (partner 0.2 µM)
Experiment: as above
Conditions: first compound 0.0128 µM
In short: as §1

Cell Line | relative viability
NCI-H1437 | 0.351
NCI-H1755 | 0.438
NCI-H2023 | 0.258
HCC-15 | 0.227
NCI-H1793 | 1.04
PC-14 | 0.136
EKVX | 0.43
LC-2-ad | 0.304
NCI-H1944 | 0.65
NCI-H1975 | 0.318
RERF-LC-KJ | 0.489
NCI-H358 | 0.188
NCI-H650 | 1.09
PC-3 [JPC-3] | 0.971

Same assay, conditions: first compound 0.04048 µM

Cell Line | relative viability
NCI-H1437 | 0.339
NCI-H1755 | 0.43
NCI-H2023 | 0.211
HCC-15 | 0.228
NCI-H1793 | 0.771
PC-14 | 0.118
EKVX | 0.4
LC-2-ad | 0.277
NCI-H1944 | 0.589
NCI-H1975 | 0.29
RERF-LC-KJ | 0.494
NCI-H358 | 0.187
NCI-H650 | 1.05
PC-3 [JPC-3] | 1.15

Same assay, conditions: first compound 0.128 µM

Cell Line | relative viability
NCI-H1437 | 0.287
NCI-H1755 | 0.577
NCI-H2023 | 0.229
HCC-15 | 0.198
NCI-H1793 | 0.871
PC-14 | 0.136
EKVX | 0.373
LC-2-ad | 0.243
NCI-H1944 | 0.571
NCI-H1975 | 0.297
RERF-LC-KJ | 0.47
NCI-H358 | 0.173
NCI-H650 | 1.02
PC-3 [JPC-3] | 1.02

Same assay, conditions: first compound 1.28 µM

Cell Line | relative viability
NCI-H1437 | 0.303
NCI-H1755 | 0.57
NCI-H2023 | 0.242
HCC-15 | 0.225
NCI-H1793 | 0.617
PC-14 | 0.133
EKVX | 0.374
LC-2-ad | 0.275
NCI-H1944 | 0.6
NCI-H1975 | 0.255
RERF-LC-KJ | 0.46
NCI-H358 | 0.166
NCI-H650 | 0.897
PC-3 [JPC-3] | 1.15

Compound: COc1cc(-c2nn([C@H]3CC[C@H](N4CCN(C(C)=O)CC4)CC3)c3ncnc(N)c23)ccc1NC(=O)c1cc2ccccc2n1C + Nc1ncn([C@H]2C[C@H](O)[C@@H](CO)O2)c(=O)n1 [Decitabine] (partner 2 µM)
Experiment: as above
Conditions: first compound 0.0128 µM
In short: as §1

Cell Line | relative viability
NCI-H1437 | 0.576
NCI-H1755 | 0.768
NCI-H2023 | 0.219
HCC-15 | 0.822
NCI-H1793 | 0.55
PC-14 | 0.203
EKVX | 0.372
LC-2-ad | 0.818
NCI-H1944 | 0.483
NCI-H1975 | 0.406
RERF-LC-KJ | 0.716
NCI-H358 | 0.224
NCI-H650 | 0.319
PC-3 [JPC-3] | 0.923

Same assay, conditions: first compound 0.04048 µM

Cell Line | relative viability
NCI-H1437 | 0.6
NCI-H1755 | 0.738
NCI-H2023 | 0.219
HCC-15 | 0.589
NCI-H1793 | 0.468
PC-14 | 0.186
EKVX | 0.36
LC-2-ad | 0.778
NCI-H1944 | 0.371
NCI-H1975 | 0.33
RERF-LC-KJ | 0.759
NCI-H358 | 0.206
NCI-H650 | 0.35
PC-3 [JPC-3] | 0.894

Same assay, conditions: first compound 0.128 µM

Cell Line | relative viability
NCI-H1437 | 0.558
NCI-H1755 | 0.699
NCI-H2023 | 0.218
HCC-15 | 0.638
NCI-H1793 | 0.509
PC-14 | 0.216
EKVX | 0.349
LC-2-ad | 0.723
NCI-H1944 | 0.456
NCI-H1975 | 0.376
RERF-LC-KJ | 0.737
NCI-H358 | 0.246
NCI-H650 | 0.304
PC-3 [JPC-3] | 0.847

Same assay, conditions: first compound 1.28 µM

Cell Line | relative viability
NCI-H1437 | 0.599
NCI-H1755 | 0.611
NCI-H2023 | 0.228
HCC-15 | 0.567
NCI-H1793 | 0.364
PC-14 | 0.326
EKVX | 0.288
LC-2-ad | 0.854
NCI-H1944 | 0.451
NCI-H1975 | 0.235
RERF-LC-KJ | 0.845
NCI-H358 | 0.167
NCI-H650 | 0.306
PC-3 [JPC-3] | 0.865
